{"source": "patent US20180078516A1", "about": "(InnovaZone Labs LLC, priority 2016, published 2018)", "key": {"clinical": {"assay": "clinical", "settings": "human, in vivo, po, 400 mg"}, "[1]": {"settings": "cited from earlier work"}, "[2]": {"settings": "cited from earlier work", "remark": "listed apart in the source"}}}
{"smiles": "CC(C)Cc1ccc(C(C)C(=O)O)cc1", "note": "(racemic) [ibuprofen sodium dihydrate, (R,S)-2-(4-isobutylphenyl) propionate sodium]", "values": [{"measurement": "Tmax", "setting": "clinical", "value": "~35", "unit": "min"}]}
{"smiles": "CC(C)Cc1ccc(C(C)C(=O)O)cc1", "note": "(racemic) [Ibuprofen, (R,S)-2-(4-isobutylphenyl) propionic acid]", "values": [{"measurement": "onset of therapeutic effects after oral administration", "setting": "[1]", "value": "between 45 minutes and one hour"}, {"measurement": "solubility in water", "setting": "[2]", "value": "practically insoluble"}]}
